# Test results from ChEMBL document CHEMBL5620425, “Design, synthesis and evaluation of novel 1-phenyl-pyrrolo[1,2-b]isoquinolin-3-one derivatives as antagonists for the glycine binding site of the NMDA receptor” (Eur J Med Chem, 2023).
# Calls of active or inactive are those of the source. No cut-off for these calls is given here.
# Assays:
# [1] = system: PC-12; assay: Neuroprotective activity against NMDA-induced cell injury in rat PC12 cells assessed as cell viability at 20 uM incubated for 24 hrs MTT assay (reference value: 77.1+/- 1.3%); assay type: functional; conditions: for Activity: 24 h, 20 µM; for viability at 20 µM: Rattus norvegicus
# [2] = system: PC-12; assay: Cytotoxicity against rat PC12 cells assessed as reduction in cell viability at 20 uM incubated for 24 hrs by MTT assay; assay type: functional
# [3] = biological target: T1, Glutamate receptor ionotropic, NMDA 1 (Homo sapiens, UniProt Q05586); assay: Binding affinity to C-terminal GFP-tagged Grin1 NMDA receptor (unknown origin) expressed in HEK293F cells assessed as dissociation constant by MST assay; assay type: cell-based
# [4] = system: PC-12; assay: Neuroprotective activity against NMDA-induced cell injury in rat PC12 cells assessed as cell viability at 2.5 to 20 uM incubated for 24 hrs MTT assay; assay type: functional, cell-based; conditions: dose 2.5-20 µM
# [5] = system: PC-12; assay: Neuroprotective activity against NMDA-induced cell injury in rat PC12 cells assessed as cell viability incubated for 24 hrs MTT assay; assay type: functional, cell-based; conditions: dose 2.5-20 µM
# [6] = system: PC-12; assay: Induction of apoptosis in NMDA-induced rat PC12 cells assessed as viable cells at 10 uM pretreated with compound for 24 hrs followed by NMDA addition and measured after 6 hrs by Annexin V-FITC/PI staining based flow cytometer analysis (reference value: 46.58%); assay type: functional; conditions: time 30 hrs, read-out: Activity
# [7] = system: PC-12; assay: Induction of apoptosis in NMDA-induced rat PC12 cells assessed as necrotic cells at 10 uM pretreated with compound for 24 hrs followed by NMDA addition and measured after 6 hrs by Annexin V-FITC/PI staining based flow cytometer analysis (reference value: 8%); assay type: functional; conditions: time 30 hrs
# [8] = system: PC-12; assay: Effect on cell morphology in NMDA-induced rat PC12 cells assessed as cell shrank at 10 uM pretreated with NMDA for 6 hrs; assay type: functional, cell-based
# [9] = system: PC-12; assay: Induction of apoptosis in NMDA-induced rat PC12 cells assessed as late apoptotic cells at 10 uM pretreated with compound for 24 hrs followed by NMDA addition and measured after 6 hrs by Annexin V-FITC/PI staining based flow cytometer analysis (reference value: 22.09 %); assay type: functional; conditions: time 30 hrs
# [10] = biological target: Glutamate NMDA receptor (Rattus norvegicus) (UniProt P35439+Q00959+Q00960+Q00961+Q62645+Q8VHN2+Q9R1M7); assay: Antagonist activity at NMDA receptor in rat PC12 cells assessed as reduction in NMDA-induced calcium ion influx at 10 uM pretreated with compound for 24 hrs followed by NMDA addition and measured after 6 hrs calcium colorimetric assay; assay type: cell-based; conditions: filed as antagonist, time 30.0 hrs
# [11] = system: PC-12; assay: Induction of apoptosis in NMDA-induced rat PC12 cells assessed as early apoptotic cells at 10 uM pretreated with compound for 24 hrs followed by NMDA addition and measured after 6 hrs by Annexin V-FITC/PI staining based flow cytometer analysis (reference value: 23.33%); assay type: functional; conditions: time 30 hrs
# [12] = system: PC-12; assay: Cytotoxicity against rat PC12 cells assessed as reduction in cell viability at 5 uM incubated for 24 hrs by MTT assay; assay type: functional, cell-based
# [13] = system: PC-12; assay: Neuroprotective activity against NMDA-induced cell injury in rat PC12 cells assessed as cell viability 10 uM incubated for 24 hrs MTT assay; assay type: functional
# [14] = biological target: T1, Glutamate receptor ionotropic, NMDA 1; assay: Binding affinity to C-terminal GFP-tagged NMDA Grin1.M mutant (unknown origin) expressed in HEK293F cells assessed as dissociation constant by MST assay; assay type: cell-based
# [15] = system: PC-12; assay: Neuroprotective activity against NMDA-induced cell injury in rat PC12 cells assessed as cell viability 5 uM incubated for 24 hrs MTT assay; assay type: functional
# [16] = PC-12, 24 h, read-out: Activity
smiles,measurement,setting,value
O=C1CC(c2ccccc2Oc2ccccc2)C2Cc3ccccc3CN12 (racemic; 14l) [listing 1 of 2 here],Activity,[1],76.3%
O=C1CC(c2ccc(Cl)cc2)C2Cc3ccccc3CN12 (racemic),viability at 20 µM,[1]; [16],77.1%
O=C1CC(c2ccccc2)C2Cc3ccc(O)cc3CN12 (racemic),Activity,[2],>87.9%
same,viability at 20 µM,[1]; [16],82.4%
O=C1CC(c2ccc(F)cc2)C2Cc3ccccc3CN12 (racemic; 13d),Activity,[2],>87.9%
same,viability at 20 µM,[1]; [16],90.6%
O=C1C[C@H](c2cccc(OCc3ccccc3)c2)[C@H]2Cc3ccccc3CN12,Kd,[3],162 nM
same,Activity,[4],Active
same,Activity,[5],Dose-Dependent Effect
O=C1CC(c2ccccc2)C2Cc3ccc(OCc4ccccc4)cc3CN12 (racemic),Activity,[2],>87.9%
same,viability at 20 µM,[1]; [16],68.5%
O=C1CC(c2ccc(F)cc2)C2Cc3ccccc3CN12 (racemic; 14e),Activity,[1],88.1%
COc1ccc(C2CC(=O)N3Cc4cc(O)ccc4CC23)cc1 (racemic; 13f),Activity,[2],>87.9%
same,viability at 20 µM,[1]; [16],81.7%
O=C1CC(c2ccccc2)C2Cc3ccccc3CN12 (racemic; 14a),Activity,[1],85%
C[C@]12N[C@H](Cc3ccccc31)c1ccccc12 [DIZOCILPINE],viability at 10 µM,[6],70.9%
same,Activity,[7],6.81%
same,Activity,[8],Active
same,viability at 20 µM,"[1]; PC-12, read-out: Activity",95.1%
same,Activity,[9],12.12%
same,Activity,[10],Active
same,Activity,[11],10.22%
O=C1CC(c2ccc(C(F)(F)F)cc2)C2Cc3ccccc3CN12 (racemic; 13g),viability at 20 µM,[1]; [16],85.6%
Cc1ccc(C2CC(=O)N3Cc4ccccc4CC23)cc1 (racemic; 13i) [listing 1 of 2 here],Activity,[12],Active
O=C1CC(c2cccc3ccccc23)C2Cc3ccccc3CN12 (racemic; 13l),viability at 20 µM,[1]; [16],74.2%
O=C1CC(c2ccccc2Oc2ccccc2)C2Cc3ccccc3CN12 (racemic; 14l) [listing 2 of 2 here],Activity,[12],Active
O=C1CC(c2ccccc2)C2Cc3ccccc3CN12 (racemic; 13a),Activity,[2],>87.9%
same,viability at 20 µM,[1]; [16],85.3%
O=C1CC(c2ccccc2Cl)C2Cc3ccccc3CN12 (racemic; 14f),Activity,[1],74.8%
O=C1CC(c2cccc(Oc3ccccc3)c2)C2Cc3ccccc3CN12 (racemic; 14k) [listing 1 of 2 here],Activity,[12],Active
O=C1CC(c2cccc(O)c2)C2Cc3ccccc3CN12 (racemic),Activity,[2],>87.9%
same,viability at 20 µM,[1]; [16],78.4%
Cc1ccc(C2CC(=O)N3Cc4ccccc4CC23)cc1 (racemic; 13i) [listing 2 of 2 here],viability at 20 µM,[1]; [16],77%
O=C1CC(c2ccccc2Cl)C2Cc3ccccc3CN12 (racemic; 13e),Activity,[2],>87.9%
same,viability at 20 µM,[1]; [16],77.9%
O=C1CC(c2cccc3ccccc23)C2Cc3ccccc3CN12 (racemic; 14m),Activity,[1],74%
O=C1CC(c2ccc(C(F)(F)F)cc2)C2Cc3ccccc3CN12 (racemic; 14h),Activity,[1],78.7%
O=C1CC(c2ccccc2)C2Cc3ccc(F)cc3CN12 (racemic),Activity,[2],>87.9%
same,viability at 20 µM,[1]; [16],82.2%
O=C1CC(c2ccccc2Oc2ccccc2)C2Cc3ccccc3CN12 (racemic; 13k),Activity,[2],3.4%
same,viability at 20 µM,[1]; [16],77.5%
O=C1C[C@@H](c2cccc(OCc3ccccc3)c2)[C@@H]2Cc3ccccc3CN12,Kd,[3],370 nM
same,Activity,[4],Active
same,Activity,[5],Dose-Dependent Effect
Cc1ccc(C2CC(=O)N3Cc4ccccc4CC23)cc1 (racemic; 14j),Activity,[1],82.3%
O=C1CC(c2cccc(OCc3ccccc3)c2)C2Cc3ccccc3CN12 (racemic),Activity,[2],>87.9%
same,Activity,[13],92.7%
same,viability at 10 µM,[6],59.6%
same,Activity,[7],6.94%
same,Activity,[8],Active
same,Kd,[3],496 nM
same,viability at 20 µM,[1]; [16],94.4%
same,Kd,[14],4250 nM
same,Activity,[9],17.88%
same,Activity,[10],Active
same,Activity,[15],93.1%
same,Activity,[11],15.6%
same,Activity,[5],Dose-Dependent Effect
O=C1CC(c2cccc(Oc3ccccc3)c2)C2Cc3ccccc3CN12 (racemic; 14k) [listing 2 of 2 here],Activity,[1],72.3%
COc1ccc(C2CC(=O)N3Cc4cc(O)ccc4CC23)cc1 (racemic; 14g),Activity,[1],75.2%
O=C1CC(c2cccc(Oc3ccccc3)c2)C2Cc3ccccc3CN12 (racemic; 13j) [listing 1 of 2 here],Activity,[12],Active
O=C1CC(c2cccc(Oc3ccccc3)c2)C2Cc3ccccc3CN12 (racemic; 13j) [listing 2 of 2 here],Activity,[2],3.4%
same,viability at 20 µM,[1]; [16],77.6%
